From PMC7797213, “Vascular effects of serelaxin in patients with stable coronary artery disease: a randomized placebo-controlled trial” (Cardiovascular Research, 2020)

Experiments:
Assay type in all cases: in vivo, human
endothelin-1 = test: Plasma biomarker endothelin-1; settings: for Endothelin-1, geo-mean (95% CI): plasma
Protocol: (§1) Biomarkers reported include: N-terminal pro-brain natriuretic peptide (NT-proBNP), high-sensitivity troponin T (hsTnT) measured to assess myocardial safety; cystatin C measured to access renal function; the biologically active form of endothelin-1 (1–21), measured to assess vascular function. Venous blood samples were collected at 0 (pre-dose), 24, 48, and 54 h, Day 30, and Day 180. NT-proBNP, hsTnT, and cystatin C samples were collected in EDTA tubes while endothelin-1 samples were collected in EDTA tubes containing aprotinin. Plasma was immediately frozen at −70°C pending analysis in complete patient sets. Commercial biomarker kits were as follows: hsTnT from Roche Diagnostics GmbH, Germany; cystatin C from Gentian, Moss, Norway; and active endothelin-1 […] from Biomedica Medizinprodukte, Vienna, Austria.
(§2) For the biomarker analyses, baseline was defined as the pre-dose assessment on Day 1. Raw values as well as changes from baseline were summarized by treatment and time. Descriptive statistics included geometric mean and 95% CI. For geometric means of change from baseline, a ratio to baseline was used to determine percentage change by first calculating in the log domain and then back transforming using exponentiation.
(§3) Baseline corresponds to the value at day 1 pre-dose. For change from baseline, geometric mean and its CI are calculated for the value (post) to baseline ratio.

hsTnT = test: Plasma biomarker high-sensitivity troponin T; design: hs Troponin-T, geo-mean (95% CI): unit not given here
Protocol: as §1, §2, §3

[1] = system: patients with stable coronary artery disease; test: Applanation tonometry-derived augmentation index (AIx); settings: for AIx, absolute value: mean ± SD; for AIx, adjusted mean difference serelaxin versus placebo / AIx, change from baseline (adjusted mean): repeated measures ANCOVA
Protocol: (30 μg/kg/day) or matching placebo, using a computerized randomization system involving concealed treatment arms. The co-primary endpoints were the change from baseline in global myocardial perfusion reserve (MPR) measured by quantitative perfusion cardiac magnetic resonance (CMR) imaging and the change from baseline in augmentation index (AIx) measured by applanation tonometry. The primary endpoints of MPR and AIx were assessed at baseline and 47 h post-commencement of the infusion (Figure 1).
The applanation tonometry assessments were performed by blinded operators. Augmentation index [AIx = (augmentation pressure/pulse pressure) × 100], and carotid-femoral PWV were measured by applanation tonometry (Sphygmocor®, AtCor Medical, Australia) at a proximal (carotid artery) and a distal (femoral artery) site of the body, utilizing R-wave gated determination of the time interval between the two measurement points. An averaged carotid pressure waveform (from a 10 s recording) was converted into a corresponding central waveform using a validated transfer function (SphygmoCor®, AtCor, Australia).[27]^,[28]

[2] = Immunogenicity: serum anti-serelaxin antibodies; settings: Day 1 (baseline) and Day 30, all patients
Protocol: Blood was collected on Day 1 (baseline) and post-dose on Day 30 for assessment of immunogenicity. Serum anti-serelaxin antibody concentrations were evaluated using a validated four-tiered assay approach for antibody screening, confirmation, titration, and neutralizing antibody detection, when applicable.

cystatin C = test: Plasma biomarker cystatin C; settings: for Cystatin C, geo-mean (95% CI): plasma
Protocol: as §1, §2, §3

[3] = system: patients with stable coronary artery disease; test: Adverse events and serious adverse events
Protocol: All adverse events (AEs) were recorded along with investigator-reported seriousness, intensity, and relationship to study drug.

[4] = 48 h, n=28, listed as serelaxin

In the case of Serelaxin, the “Endothelin-1 change from baseline, geometric mean ratio to baseline (95% CI)” value (endothelin-1; 24 h, n=27) is reported as 0.82 (0.68, 0.99), the “Endothelin-1 change from baseline, geometric mean ratio to baseline (95% CI)” value (endothelin-1; 48 h, n=28) is reported as 0.82 (0.70, 0.96) and the “Endothelin-1 change from baseline, geometric mean ratio to baseline (95% CI)” value (endothelin-1; [4]) is reported as 0.82. The “Endothelin-1 change from baseline, geometric mean ratio to baseline (95% CI)” value (endothelin-1; 54 h, n=26) was 0.84 (0.73, 0.96), the “Endothelin-1 change from baseline, geometric mean ratio to baseline (95% CI)” value (endothelin-1; Day 30, n=29) was 0.93 (0.77, 1.13) and the “Endothelin-1 change from baseline, geometric mean ratio to baseline (95% CI)” value (endothelin-1; Day 180, n=29) was 0.88 (0.69, 1.12). For the same substance, the “Endothelin-1, geo-mean (95% CI)” value (endothelin-1; 0 h (pre-dose baseline), n=29) was 0.874 (0.630, 1.212) pmol/L, the “Endothelin-1, geo-mean (95% CI)” value (endothelin-1; 24 h, n=27) was 0.6732 (0.4626, 0.9796) pmol/L and the “Endothelin-1, geo-mean (95% CI)” value (endothelin-1; 48 h, n=28) was 0.6835 (0.4647, 1.0054) pmol/L. For the same substance, the “Endothelin-1, geo-mean (95% CI)” value (endothelin-1; 54 h, n=26) was 0.7535 (0.5098, 1.1138) pmol/L, the “Endothelin-1, geo-mean (95% CI)” value (endothelin-1; Day 30, n=29) was 0.8145 (0.5881, 1.1279) pmol/L and the “Endothelin-1, geo-mean (95% CI)” value (endothelin-1; Day 180, n=29) was 0.7664 (0.5436, 1.0806) pmol/L. For the same substance, the “hs Troponin-T change from baseline, geometric mean ratio to baseline (95% CI)” value (hsTnT; 24 h, n=27) was 0.90 (0.80, 1.01), the “hs Troponin-T change from baseline, geometric mean ratio to baseline (95% CI)” value (hsTnT; 48 h, n=28) was 0.87 (0.79, 0.95) and the “hs Troponin-T change from baseline, geometric mean ratio to baseline (95% CI)” value (hsTnT; 54 h, n=27) was 1.02 (0.85, 1.24). The “hs Troponin-T change from baseline, geometric mean ratio to baseline (95% CI)” value (hsTnT; Day 30, n=29) was 0.89 (0.78, 1.02), the “hs Troponin-T change from baseline, geometric mean ratio to baseline (95% CI)” value (hsTnT; Day 180, n=29) was 1.09 (0.91, 1.31) and the “hs Troponin-T, geo-mean (95% CI)” value (hsTnT; plasma, 0 h (pre-dose baseline), n=29) was 0.0076 (0.0057, 0.0102). The “hs Troponin-T, geo-mean (95% CI)” value (hsTnT; plasma, 24 h, n=27) was 0.0064 (0.0049, 0.0084), the “hs Troponin-T, geo-mean (95% CI)” value (hsTnT; plasma, 48 h, n=28) was 0.0066 (0.0049, 0.0089) and the “hs Troponin-T, geo-mean (95% CI)” value (hsTnT; plasma, 54 h, n=27) was 0.0079 (0.0057, 0.0110). For the same substance, the “hs Troponin-T, geo-mean (95% CI)” value (hsTnT; plasma, Day 30, n=29) was 0.0068 (0.0053, 0.0088), the “hs Troponin-T, geo-mean (95% CI)” value (hsTnT; plasma, Day 180, n=29) was 0.0083 (0.0066, 0.0105) and the “hsTnT geometric mean at baseline” value (hsTnT; plasma, pre-dose baseline, serelaxin group) was 7.6 ng/L. For the same substance, the “AIx, absolute value” ([1]; 0 h (pre-dose baseline), n=25) was 25.81 ± 7.70 (25) %, the “AIx, adjusted mean difference serelaxin versus placebo” value ([1]; 2 h) was -2.12% and the “AIx, change from baseline (adjusted mean)” value (“AIx, change from baseline” for short) ([1]; 2 h, n=23) was -4.09%. For the same substance, the “AIx, absolute value” ([1]; 2 h post-dose, n=23) was 22.17 ± 10.09 (23) %, the “AIx, adjusted mean difference serelaxin versus placebo” value ([1]; 6 h) was -2.88% and the “AIx, change from baseline” value ([1]; 6 h, n=24) was -3.28%. For the same substance, the “AIx, absolute value” ([1]; 6 h post-dose, n=24) was 22.96 ± 6.95 (24) %, the “AIx, adjusted mean difference serelaxin versus placebo” value ([1]; 24 h) was “–0.84%” and the “AIx, change from baseline” value ([1]; 24 h, n=24) was -0.77%. The “AIx, absolute value” ([1]; 24 h post-dose, n=24) was 25.08 ± 8.10 (24) %, the “AIx, adjusted mean difference serelaxin versus placebo” value ([1]; 47 h) was 3.45% and the “AIx, change from baseline” value ([1]; 47 h, n=23) was 3.49%. The “AIx, absolute value” ([1]; 47 h post-dose, n=23) was 29.57 ± 9.75 (23) %, the “AIx, adjusted mean difference serelaxin versus placebo” value ([1]; 50 h) was 3.25% and the “AIx, change from baseline” value ([1]; 50 h, n=22) was -0.76%. The “AIx, absolute value” ([1]; 50 h post-dose, n=22) was 24.89 ± 12.50 (22) %, the “AIx, adjusted mean difference serelaxin versus placebo” value ([1]; 54 h) was -0.98% and the “AIx, change from baseline” value ([1]; 54 h, n=22) was -1.74%. The “AIx, absolute value” ([1]; 54 h post-dose, n=22) was 24.70 ± 10.62 (22) %, the “AIx, absolute value” ([1]; Day 30, n=25) was 24.98 ± 9.05 (25) % and the “AIx, adjusted mean difference serelaxin versus placebo” value ([1]; Day 30) was -1.76%. The “AIx, change from baseline” value ([1]; Day 30, n=25) was -0.98%, the “AIx, absolute value” ([1]; Day 180, n=24) was 26.15 ± 8.97 (24) % and the “AIx, adjusted mean difference serelaxin versus placebo” value ([1]; Day 180) was -0.05%. The “AIx, adjusted mean difference serelaxin versus placebo” value ([1]; Day 180, listed as serelaxin) was −0.05%, the “AIx, change from baseline” value ([1]; Day 180, n=24) was 0.23% and the Anti-serelaxin antibody status [2] was “anti-serelaxin antibody negative”. For the same substance, the “Cystatin C change from baseline, geometric mean ratio to baseline (95% CI)” value (cystatin C; 24 h, n=27) was 0.92 (0.89, 0.94), the “Cystatin C change from baseline, geometric mean ratio to baseline (95% CI)” value (cystatin C; 48 h, n=28) was 0.93 (0.91, 0.96) and the “Cystatin C change from baseline, geometric mean ratio to baseline (95% CI)” value (cystatin C; [4]) was 0.93. For the same substance, the “Cystatin C change from baseline, geometric mean ratio to baseline (95% CI)” value (cystatin C; 54 h, n=27) was 0.87 (0.80, 0.94), the “Cystatin C change from baseline, geometric mean ratio to baseline (95% CI)” value (cystatin C; 54 h, n=27, listed as serelaxin) was 0.87 and the “Cystatin C change from baseline, geometric mean ratio to baseline (95% CI)” value (cystatin C; Day 30, n=29) was 0.97 (0.93, 1.00). For the same substance, the “Cystatin C change from baseline, geometric mean ratio to baseline (95% CI)” value (cystatin C; Day 180, n=29) was 0.98 (0.89, 1.07), the “Cystatin C, geo-mean (95% CI)” value (cystatin C; 0 h (pre-dose baseline), n=29) was 0.931 (0.876, 0.990) mg/L and the “Cystatin C, geo-mean (95% CI)” value (cystatin C; 0 h (pre-dose baseline), n=29, listed as serelaxin) was 0.93 mg/L. The “Cystatin C, geo-mean (95% CI)” value (cystatin C; 24 h, n=27) was 0.839 (0.788, 0.893) mg/L, the “Cystatin C, geo-mean (95% CI)” value (cystatin C; 48 h, n=28) was 0.867 (0.812, 0.926) mg/L and the “Cystatin C, geo-mean (95% CI)” value (cystatin C; 54 h, n=27) was 0.796 (0.721, 0.878) mg/L. The “Cystatin C, geo-mean (95% CI)” value (cystatin C; Day 30, n=29) was 0.899 (0.842, 0.960) mg/L, the “Cystatin C, geo-mean (95% CI)” value (cystatin C; Day 180, n=29) was 0.908 (0.821, 1.004) mg/L and the “Patients discontinuing the study due to hypotensive events” value ([3]; in vivo) was “No patient”. The “AEs considered causally related to serelaxin” value ([3]; investigator-reported relationship) was “None”, the “Angina pectoris (AE by preferred term)” value ([3]; safety set n=30) was 1 (3) n (%) and the “Angina unstable (AE by preferred term)” value ([3]; safety set n=30) was 1 (3) n (%). The “Blood creatinine increased (AE by preferred term)” value ([3]; safety set n=30) was 1 (3) n (%), the “Dizziness (AE by preferred term)” value ([3]; safety set n=30) was 2 (7) n (%) and the “Dyspnoea (AE by preferred term)” value ([3]; safety set n=30) was 2 (7) n (%). The “Haematocrit decreased (AE by preferred term)” value ([3]; safety set n=30) was 1 (3) n (%), the “Haemoglobin decreased (AE by preferred term)” value ([3]; safety set n=30) was 2 (7) n (%) and the “Headache (AE by preferred term)” value ([3]; safety set n=30) was 2 (7) n (%). The “Musculoskeletal pain (AE by preferred term)” value ([3]; safety set n=30) was 2 (7) n (%), the “Presyncope (AE by preferred term)” value ([3]; safety set n=30) was 0 (0) n (%) and the “Subjects with at least one AE” value ([3]; safety set n=30, 48 h IV infusion 30 µg/kg/day, follow-up to Day 180) was 17 (57) n (%). The Deaths ([3]; study period to Day 180) was “No deaths”.
